Test results from patent US9919019B2, “Use of essential oil of oregano or of rosewood, or constituents thereof, in the cosmetic treatment of keratoses” (L'Oreal, priority 2010, dated 2018).

System: A431 cells
Assay: Annexin V/propidium iodide (AV/PI) apoptosis test in A431 cells
Format: cell-based, human
Conditions: for death by targeted apoptosis of mutated cancer cells / cytotoxic efficacy compared with complex essential oils: 12 h; for death by targeted apoptosis of mutated cancer cells: A431 versus HEK001, concentrations equal to those present in the EO treatments (linalool 320 nL/mL, carvacrol 60 nL/mL, thymol 30 nL/mL); for cytotoxic efficacy compared with complex essential oils: equivalent dose; for apoptotic A431 cells: 12 h of treatment
Protocol: These three molecules were incubated for 12 h with non-mutated immortalized keratinocytes (HEK001) and mutated cancerous keratinocytes (A431). The percentage of cells in apoptosis was measured by the annexin V/propidium iodide test. The concentrations of the molecules used were equal to those present during the treatments with the essential oils. Example: the concentration of linalool used here represents the equivalent of 80% of linalool present in the essential oil of rosewood.
Thirty six hours before the treatment, the cells were distributed into a 96-well plate (5×10^5 cells/mL).
EO treatment solution: the essential oils were diluted to 1/10th a first time in 100% ethanol. Next, a second dilution was carried out in culture medium in order to obtain the desired concentrations.
The AV/PI test can be used to detect this event because of the affinity of the protein annexin V for phosphatidyl-serine. Propidium iodide, which targets DNA, can be used to distinguish early apoptotic cells from cells in late apoptosis and/or in necrosis.
After the desired treatment time, the medium was eliminated, the cells were harvested (by trypsinization), centrifuged and rinsed in 4 mL of PBS 1×. Tagging was carried out following the instructions of the manufacturer (Kit Vybrant, Molecular Probe). The cells were rapidly taken up in 100 μl of tagging buffer, to which 6 μl of annexin V and 3 μg/mL of propidium iodide per sample was added. The cells were then incubated for 30 min in the dark (at ambient temperature). Four hundred μL of tagging buffer was added before measuring the fluorescence of the annexin V (at 530 nm) and of the propidium iodide (at 610 nm).

| SMILES | death by targeted apoptosis of mutated cancer cells | cytotoxic efficacy compared with complex essential oils | apoptotic A431 cells (thymol 30 nL/mL) | apoptotic A431 cells (carvacrol 60 nL/mL) [%] |
| --- | --- | --- | --- | --- |
| Cc1ccc(C(C)C)c(O)c1 [thymol] | qualitatively conserved | lower than with complex essential oils | approximately 15% | – |
| C=CC(C)(O)CCC=C(C)C (centres unmarked) [linalool] | qualitatively conserved | lower than with complex essential oils | – | – |
| Cc1ccc(C(C)C)cc1O [carvacrol] | qualitatively conserved | lower than with complex essential oils | – | ~25 |
